Assay results from patent US6972319B1, “Pituitary adenylate cyclase activating peptide (PACAP)receptor 3 (R3) agonists and their pharmacological methods of use” (priority 1999, dated 2005).

Molecular target: T1, PACAP-R2 (Homo sapiens, UniProt P32241)
T1 construct: expressed in transfected cells; host or cells: CHO cells
T1 sequence (P32241 31-457): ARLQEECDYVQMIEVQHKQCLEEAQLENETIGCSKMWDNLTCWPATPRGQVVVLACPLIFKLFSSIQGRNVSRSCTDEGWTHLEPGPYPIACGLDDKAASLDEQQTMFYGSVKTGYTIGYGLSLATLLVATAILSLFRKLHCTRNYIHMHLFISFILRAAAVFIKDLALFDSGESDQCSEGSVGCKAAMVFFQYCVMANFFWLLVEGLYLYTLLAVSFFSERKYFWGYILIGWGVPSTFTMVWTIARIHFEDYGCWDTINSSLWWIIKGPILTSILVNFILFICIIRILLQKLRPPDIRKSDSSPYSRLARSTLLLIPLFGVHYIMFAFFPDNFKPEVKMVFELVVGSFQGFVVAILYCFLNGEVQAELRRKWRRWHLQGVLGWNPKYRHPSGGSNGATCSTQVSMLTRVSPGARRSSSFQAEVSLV
Experiment: Cyclic AMP SPA on CHO cells transfected with PACAP-R2
Format: cell-based
Conditions: cAMP SPA, concentration at which 50% of maximum PACAP27 activity is achieved, NA = no detectable activities, read-out: R2 EC50
Experimental: CHO cells expressing the PACAP R3 were plated in 96-well plates (Costar) at 8×10^4 cell/well and grown at 37 C. for 24 hours in α MEM+nucleosides+glutamine (Giobco BRL), 10% FBS, 100 μg/ml Pen/Strep, 0.3 mg/ml glutamine, 1 mM HEPES, 0.5 mg/ml Geneticin (Gibco BRL). The media was removed and the plates were washed with PBS. The cells were incubated with a peptide, in Hepes-PBS-BSA with 0.4 mg/mlSoybean Trypsin Inhibitor, 0.5 mg/ml Bacitracin, 100 uM IBMX, for 15 min at 37 C. Cyclic AMP in the cell extracts was quantitated using the cAMP SPA direct screening assay system (Amersham Pharmacia Biotech Inc, Piscataway, N.J.,). The peptides shown in Table 3 were assayed for cAMP activity.
EC50 is defined as the concentration of the polypeptide at which 50% of maximum PACAP27 activity is achieved. “NA” denotes no detectable activities. “R3 Selectivity” is derived from the ratio of EC50 at R2 versus EC50 at R3.

Compound | EC50 [nM]
CC[C@H](C)[C@H](NC(=O)[C@H](CO)NC(=O)[C@H](CC(N)=O)NC(=O)[C@H](CC(C)C)NC(=O)[C@H](Cc1ccc(O)cc1)NC(=O)[C@H](CCCCN)NC(=O)[C@H](CCCCN)NC(=O)[C@H](C)NC(=O)[C@H](C)NC(=O)[C@H](CCSC)NC(=O)[C@H](CCC(N)=O)NC(=O)[C@H](CCCCN)NC(=O)[C@H](CCCNC(=N)N)NC(=O)[C@H](CC(C)C)NC(=O)[C@H](CCCNC(=N)N)NC(=O)[C@@H](NC(=O)[C@H](Cc1ccc(O)cc1)NC(=O)[C@H](CC(N)=O)NC(=O)[C@H](CC(=O)O)NC(=O)[C@@H](NC(=O)[C@H](Cc1ccccc1)NC(=O)[C@@H](NC(=O)[C@H](C)NC(=O)[C@H](CC(=O)O)NC(=O)[C@H](CO)NC(=O)[C@@H](N)Cc1c[nH]cn1)C(C)C)[C@@H](C)O)[C@@H](C)O)C(=O)N[C@H](C(=O)N[C@@H](CC(N)=O)C(=O)N[C@@H](CCCCN)C(=O)N[C@@H](CCCNC(=N)N)C(=O)O)[C@@H](C)CC [Peptide R3P123] | 5
CC[C@H](C)[C@H](NC(=O)[C@H](CO)NC(=O)[C@H](CC(N)=O)NC(=O)[C@H](CC(C)C)NC(=O)[C@H](Cc1ccc(O)cc1)NC(=O)[C@H](CCCCN)NC(=O)[C@H](CCCCN)NC(=O)[C@H](C)NC(=O)[C@H](C)NC(=O)[C@H](CCSC)NC(=O)[C@H](CCC(N)=O)NC(=O)[C@H](CCCCN)NC(=O)[C@H](CCCNC(=N)N)NC(=O)[C@H](CC(C)C)NC(=O)[C@H](CCCNC(=N)N)NC(=O)[C@@H](NC(=O)[C@H](Cc1ccc(O)cc1)NC(=O)[C@H](CC(N)=O)NC(=O)[C@H](CC(=O)O)NC(=O)[C@@H](NC(=O)[C@H](Cc1ccccc1)NC(=O)[C@@H](NC(=O)[C@H](C)NC(=O)[C@H](CC(=O)O)NC(=O)[C@H](CO)NC(=O)[C@@H](N)Cc1c[nH]cn1)C(C)C)[C@@H](C)O)[C@@H](C)O)C(=O)N[C@@H](CCSC)C(=O)N[C@@H](CC(N)=O)C(=O)N[C@@H](CCCCN)C(=O)N[C@@H](CCCNC(=N)N)C(=O)O [Peptide R3P124] | 3
CC[C@H](C)[C@H](NC(=O)[C@H](CO)NC(=O)[C@H](CC(N)=O)NC(=O)[C@H](CC(C)C)NC(=O)[C@H](Cc1ccc(O)cc1)NC(=O)[C@H](CCCCN)NC(=O)[C@H](CCCCN)NC(=O)[C@H](C)NC(=O)[C@H](C)NC(=O)[C@H](CCSC)NC(=O)[C@H](CCC(N)=O)NC(=O)[C@H](CCCCN)NC(=O)[C@H](CCCNC(=N)N)NC(=O)[C@H](CC(C)C)NC(=O)[C@H](CCCNC(=N)N)NC(=O)[C@@H](NC(=O)[C@H](Cc1ccc(O)cc1)NC(=O)[C@H](CC(N)=O)NC(=O)[C@H](CC(=O)O)NC(=O)[C@@H](NC(=O)[C@H](Cc1ccccc1)NC(=O)[C@@H](NC(=O)[C@H](C)NC(=O)[C@H](CC(=O)O)NC(=O)[C@H](CO)NC(=O)[C@@H](N)Cc1c[nH]cn1)C(C)C)[C@@H](C)O)[C@@H](C)O)C(=O)N[C@@H](Cc1ccc(O)cc1)C(=O)N[C@@H](CC(N)=O)C(=O)N[C@@H](CCCCN)C(=O)N[C@@H](CCCNC(=N)N)C(=O)O [Peptide R3P133] | 8
CC[C@H](C)[C@H](NC(=O)[C@H](CO)NC(=O)[C@H](CC(N)=O)NC(=O)[C@H](CC(C)C)NC(=O)[C@H](Cc1ccc(O)cc1)NC(=O)[C@H](CCCCN)NC(=O)[C@H](CCCCN)NC(=O)[C@H](C)NC(=O)[C@H](C)NC(=O)[C@H](CCSC)NC(=O)[C@H](CCC(N)=O)NC(=O)[C@H](CCCCN)NC(=O)[C@H](CCCNC(=N)N)NC(=O)[C@H](CC(C)C)NC(=O)[C@H](CCCNC(=N)N)NC(=O)[C@@H](NC(=O)[C@H](Cc1ccc(O)cc1)NC(=O)[C@H](CC(N)=O)NC(=O)[C@H](CC(=O)O)NC(=O)[C@@H](NC(=O)[C@H](Cc1ccccc1)NC(=O)[C@@H](NC(=O)[C@H](C)NC(=O)[C@H](CC(=O)O)NC(=O)[C@H](CO)NC(=O)[C@@H](N)Cc1c[nH]cn1)C(C)C)[C@@H](C)O)[C@@H](C)O)C(=O)N[C@@H](CCCCN)C(=O)N[C@@H](CC(N)=O)C(=O)N[C@@H](C)C(=O)N[C@@H](CCCNC(=N)N)C(=O)O [Peptide R3P134] | 40
CC[C@H](C)[C@H](NC(=O)[C@H](CO)NC(=O)[C@H](CC(N)=O)NC(=O)[C@H](CC(C)C)NC(=O)[C@H](Cc1ccc(O)cc1)NC(=O)[C@H](CCCCN)NC(=O)[C@H](CCCCN)NC(=O)[C@H](C)NC(=O)[C@H](C)NC(=O)[C@H](CCSC)NC(=O)[C@H](CCC(N)=O)NC(=O)[C@H](CCCCN)NC(=O)[C@H](CCCNC(=N)N)NC(=O)[C@H](CC(C)C)NC(=O)[C@H](CCCNC(=N)N)NC(=O)[C@@H](NC(=O)[C@H](Cc1ccc(O)cc1)NC(=O)[C@H](CC(N)=O)NC(=O)[C@H](CC(=O)O)NC(=O)[C@@H](NC(=O)[C@H](Cc1ccccc1)NC(=O)[C@@H](NC(=O)[C@H](C)NC(=O)[C@H](CC(=O)O)NC(=O)[C@H](CO)NC(=O)[C@@H](N)Cc1c[nH]cn1)C(C)C)[C@@H](C)O)[C@@H](C)O)C(=O)N[C@@H](CCCCN)C(=O)N[C@@H](CC(N)=O)C(=O)N[C@@H](CCCCN)C(=O)N[C@@H](CC(C)C)C(=O)O [Peptide R3P162] | 20
CC[C@H](C)[C@H](NC(=O)[C@H](CO)NC(=O)[C@H](CC(N)=O)NC(=O)[C@H](CC(C)C)NC(=O)[C@H](Cc1ccc(O)cc1)NC(=O)[C@H](CCCCN)NC(=O)[C@H](CCCCN)NC(=O)[C@H](C)NC(=O)[C@H](C)NC(=O)[C@H](CCSC)NC(=O)[C@H](CCC(N)=O)NC(=O)[C@H](CCCCN)NC(=O)[C@H](CCCNC(=N)N)NC(=O)[C@H](CC(C)C)NC(=O)[C@H](CCCNC(=N)N)NC(=O)[C@@H](NC(=O)[C@H](Cc1ccc(O)cc1)NC(=O)[C@H](CC(N)=O)NC(=O)[C@H](CC(=O)O)NC(=O)[C@@H](NC(=O)[C@H](Cc1ccccc1)NC(=O)[C@@H](NC(=O)[C@H](C)NC(=O)[C@H](CC(=O)O)NC(=O)[C@H](CO)NC(=O)[C@@H](N)Cc1c[nH]cn1)C(C)C)[C@@H](C)O)[C@@H](C)O)C(=O)N[C@@H](CCCCN)C(=O)N[C@@H](CC(N)=O)C(=O)N[C@@H](CCCCN)C(=O)N[C@@H](CCSC)C(=O)O [Peptide R3P163] | 40

Next, values leading:

EC50 [nM] | Compound
50 | CC[C@H](C)[C@H](NC(=O)[C@H](CO)NC(=O)[C@H](CC(N)=O)NC(=O)[C@H](CC(C)C)NC(=O)[C@H](Cc1ccc(O)cc1)NC(=O)[C@H](CCCCN)NC(=O)[C@H](CCCCN)NC(=O)[C@H](C)NC(=O)[C@H](C)NC(=O)[C@H](CCSC)NC(=O)[C@H](CCC(N)=O)NC(=O)[C@H](CCCCN)NC(=O)[C@H](CCCNC(=N)N)NC(=O)[C@H](CC(C)C)NC(=O)[C@H](CCCNC(=N)N)NC(=O)[C@@H](NC(=O)[C@H](Cc1ccc(O)cc1)NC(=O)[C@H](CC(N)=O)NC(=O)[C@H](CC(=O)O)NC(=O)[C@@H](NC(=O)[C@H](Cc1ccccc1)NC(=O)[C@@H](NC(=O)[C@H](C)NC(=O)[C@H](CC(=O)O)NC(=O)[C@H](CO)NC(=O)[C@@H](N)Cc1c[nH]cn1)C(C)C)[C@@H](C)O)[C@@H](C)O)C(=O)N[C@@H](CCCCN)C(=O)N[C@@H](CC(N)=O)C(=O)N[C@@H](CCCCN)C(=O)N[C@@H](CCC(N)=O)C(=O)O [Peptide R3P166]
300 | CC[C@H](C)[C@H](NC(=O)[C@H](CO)NC(=O)[C@H](CC(N)=O)NC(=O)[C@H](CC(C)C)NC(=O)[C@H](Cc1ccc(O)cc1)NC(=O)[C@H](CCCCN)NC(=O)[C@H](CCCCN)NC(=O)[C@H](C)NC(=O)[C@H](C)NC(=O)[C@H](CCSC)NC(=O)[C@H](CCC(N)=O)NC(=O)[C@H](CCCCN)NC(=O)[C@H](CCCNC(=N)N)NC(=O)[C@H](CC(C)C)NC(=O)[C@H](CCCNC(=N)N)NC(=O)[C@@H](NC(=O)[C@H](Cc1ccc(O)cc1)NC(=O)[C@H](CC(N)=O)NC(=O)[C@H](CC(=O)O)NC(=O)[C@@H](NC(=O)[C@H](Cc1ccccc1)NC(=O)[C@@H](NC(=O)[C@H](C)NC(=O)[C@H](CC(=O)O)NC(=O)[C@H](CO)NC(=O)[C@@H](N)Cc1c[nH]cn1)C(C)C)[C@@H](C)O)[C@@H](C)O)C(=O)N[C@@H](CCCCN)C(=O)N[C@@H](CC(N)=O)C(=O)N[C@@H](CCCCN)C(=O)N[C@@H](CO)C(=O)O [Peptide R3P167]
20 | CC[C@H](C)[C@H](NC(=O)[C@H](CO)NC(=O)[C@H](CC(N)=O)NC(=O)[C@H](CC(C)C)NC(=O)[C@H](Cc1ccc(O)cc1)NC(=O)[C@H](CCCCN)NC(=O)[C@H](CCCCN)NC(=O)[C@H](C)NC(=O)[C@H](C)NC(=O)[C@H](CCSC)NC(=O)[C@H](CCC(N)=O)NC(=O)[C@H](CCCCN)NC(=O)[C@H](CCCNC(=N)N)NC(=O)[C@H](CC(C)C)NC(=O)[C@H](CCCNC(=N)N)NC(=O)[C@@H](NC(=O)[C@H](Cc1ccc(O)cc1)NC(=O)[C@H](CC(N)=O)NC(=O)[C@H](CC(=O)O)NC(=O)[C@@H](NC(=O)[C@H](Cc1ccccc1)NC(=O)[C@@H](NC(=O)[C@H](C)NC(=O)[C@H](CC(=O)O)NC(=O)[C@H](CO)NC(=O)[C@@H](N)Cc1c[nH]cn1)C(C)C)[C@@H](C)O)[C@@H](C)O)C(=O)N[C@@H](CCCCN)C(=O)N[C@@H](CC(N)=O)C(=O)N[C@@H](CCCCN)C(=O)N[C@@H](Cc1c[nH]c2ccccc12)C(=O)O [Peptide R3P170]
